Experimental data published in patent publication US4214093A, “Amino- or guanidino-1,2,3,4-tetrahydro-1-naphthoic esters” (Torii & Co., Ltd., priority 1977, dated 1980).
Where two headings read alike, the source gives them in different places.

How the values were obtained:
[1] = system: thrombin; test: Inhibitory activity on thrombus formation: protection from lethal thrombin injection in mice; type: in vivo, mice (ddY strain); settings: 10 minutes before thrombin 300 NIH units/kg i.v., No. 91 in 2.5% gum arabic
Experimental: White male mice (ddY strain), 4 weeks age and weighing 18-27 g, were used throughout the experiments. […] The intravenous injection of 300 NIH units/kg of thrombin over 30 seconds into mice was lethal to all animals. The compounds were intraperitoneally administered in doses of 1, 10, and 100 mg/kg in saline unless otherwise described.
Compounds were intraperitoneally administered 10 minutes before thrombin injection. Compound No. 91 was dissolved in 2.5% gum arabic.

[2] = target: Bovine Thrombin (Bos taurus, UniProt P00735); test: Inhibitory effect on ester-hydrolyzing activity of bovine thrombin (TAMe substrate); type: biochemical; settings: for inhibition at 1000 µM: at 10^-3 M, in vitro, TAMe, read-out: Thrombin percent inhibition
Experimental: The enzyme-inhibitory activities in vitro of the compounds of this invention were measured by the following procedure according to the method of M. Muramatsu et al. [M. Muramatsu, T. Onishi, S. Makino, Y. Hayashi and S. Fujii: J. Biochem., 58, 214 (1965)]
To 0.1 ml of trypsin (5 μg/ml) were added 0.5 ml of 0.1 M borate buffer solution (pH 8.6) containing 10 mM CaCl2, and 0.1 ml of a varying concentration of an inhibitor solution, and preincubation was carried out at 37° C. for 5 minutes. Then, 10 μmoles of the substrate, TAMe (tosylarginine methyl ester), was added, and incubation was preformed at 37° C. for 30 minutes.
After the incubation, 1.5 ml of 2 M alkaline hydroxylamine was added and thoroughly mixed, and allowed to stand at room temperature for 15 minutes. Then, 1.0 ml of each of 18% trichloroacetic acid, 4 N HCl and 10% FeCl3 was added and thoroughly mixed. If necessary, the mixture was centrifuged at 3,000 rpm for 10 minutes, and the absorbance of the supernatant was measured at 530 nm.
It was measured by using 0.4 ml of bovine thrombin […], 0.02 M sodium phosphate buffer solution (pH 7.4) and TAMe as substrate following the method described in (1).

[3] = target: Human Plasmin (Homo sapiens, UniProt P00747); test: Inhibitory effect on ester-hydrolyzing activity of human plasmin (TAMe substrate); type: biochemical; settings: for inhibition at 1000 µM: read-out: Plasmin percent inhibition; for IC50: Table 4 bracketed value, read-out: Plasmin ID50
Human Plasmin, sequence (P00747 581-810 limits assumed): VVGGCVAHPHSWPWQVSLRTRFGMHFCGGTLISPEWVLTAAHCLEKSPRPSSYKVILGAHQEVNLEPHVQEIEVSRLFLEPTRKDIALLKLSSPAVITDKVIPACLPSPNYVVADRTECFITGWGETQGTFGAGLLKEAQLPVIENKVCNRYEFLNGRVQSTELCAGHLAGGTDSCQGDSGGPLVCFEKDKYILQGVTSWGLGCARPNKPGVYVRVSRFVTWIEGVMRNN
Human Plasmin, sequence (P00747 97-580 partner limits assumed): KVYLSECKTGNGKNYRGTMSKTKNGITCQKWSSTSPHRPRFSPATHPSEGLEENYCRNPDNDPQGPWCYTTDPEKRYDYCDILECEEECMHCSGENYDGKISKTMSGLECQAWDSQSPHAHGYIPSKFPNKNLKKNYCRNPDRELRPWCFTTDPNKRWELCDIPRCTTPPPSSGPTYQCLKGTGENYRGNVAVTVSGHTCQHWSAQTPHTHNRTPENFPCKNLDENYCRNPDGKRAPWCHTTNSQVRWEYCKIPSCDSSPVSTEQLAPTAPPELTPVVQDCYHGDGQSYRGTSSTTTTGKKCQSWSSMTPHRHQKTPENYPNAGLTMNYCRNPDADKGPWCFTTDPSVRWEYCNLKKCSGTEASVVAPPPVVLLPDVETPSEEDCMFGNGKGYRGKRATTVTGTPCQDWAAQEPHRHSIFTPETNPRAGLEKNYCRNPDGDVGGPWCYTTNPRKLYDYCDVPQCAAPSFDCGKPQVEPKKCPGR
Experimental: The enzyme-inhibitory activities in vitro of the compounds of this invention were measured by the following procedure according to the method of M. Muramatsu et al. [[…]. […] After the incubation, 1.5 ml of 2 M alkaline hydroxylamine was added and thoroughly mixed, and allowed to stand at room temperature for 15 minutes. […] It was measured by using 0.1 ml of plasmin (generated by activation of plasminogen with streptokinase) and TAMe as substrate following the method described in (1).

[4] = target: T1, Human Cl Esterase (Homo sapiens, UniProt P09871); test: Inhibitory effect on ester-hydrolyzing activity of human Cl esterase (ATEe substrate); type: biochemical; settings: for inhibition at 1000 µM: read-out: Cl-esterase percent inhibition; for IC50: pH 7.4, Table 4 bracketed value, read-out: Cl-esterase ID50
T1 sequence (P09871 438-688 limits assumed): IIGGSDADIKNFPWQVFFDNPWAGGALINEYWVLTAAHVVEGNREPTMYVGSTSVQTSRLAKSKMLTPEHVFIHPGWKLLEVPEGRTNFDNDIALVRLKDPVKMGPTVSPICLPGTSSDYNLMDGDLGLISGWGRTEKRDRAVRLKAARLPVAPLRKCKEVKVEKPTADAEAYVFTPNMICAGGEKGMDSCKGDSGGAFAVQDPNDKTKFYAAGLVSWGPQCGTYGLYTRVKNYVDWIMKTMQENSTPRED
T1 sequence (P09871 16-437 partner limits assumed): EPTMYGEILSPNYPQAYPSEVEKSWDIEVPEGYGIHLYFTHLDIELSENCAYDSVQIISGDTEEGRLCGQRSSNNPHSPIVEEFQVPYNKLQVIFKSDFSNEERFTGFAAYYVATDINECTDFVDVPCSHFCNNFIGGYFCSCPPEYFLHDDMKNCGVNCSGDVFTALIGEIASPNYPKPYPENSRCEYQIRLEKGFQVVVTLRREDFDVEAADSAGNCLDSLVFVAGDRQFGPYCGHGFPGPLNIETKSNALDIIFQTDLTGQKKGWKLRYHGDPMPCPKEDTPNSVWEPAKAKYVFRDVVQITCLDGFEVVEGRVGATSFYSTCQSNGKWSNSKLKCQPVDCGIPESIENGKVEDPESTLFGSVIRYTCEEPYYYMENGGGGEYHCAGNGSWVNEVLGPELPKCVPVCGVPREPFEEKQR
Experimental: It was measured by using 0.1 ml of Cl esterase, 0.1 ml of 0.02 M sodium phosphate buffer solution (pH 7.4 ) and 10 μmoles of ATEe (acetyltyrosine ethyl ester) as substrate following the method described in (1).

[5] = target: T2, Trypsin (Bos taurus, UniProt P00760); test: Inhibitory effect on ester-hydrolyzing activity of trypsin (TAMe substrate); type: biochemical; settings: for inhibition at 1000 µM: read-out: Trypsin percent inhibition
T2 sequence (P00760 24-246): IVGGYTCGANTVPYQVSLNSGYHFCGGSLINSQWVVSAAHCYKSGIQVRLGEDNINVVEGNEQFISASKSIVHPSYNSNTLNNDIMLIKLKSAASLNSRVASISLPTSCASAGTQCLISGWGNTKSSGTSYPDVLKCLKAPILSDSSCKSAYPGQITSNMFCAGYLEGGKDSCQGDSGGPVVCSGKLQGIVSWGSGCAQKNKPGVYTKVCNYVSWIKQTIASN
Experimental: (§1) The enzyme-inhibitory activities in vitro of the compounds of this invention were measured by the following procedure according to the method of M. Muramatsu et al. [[…]. […] After the incubation, 1.5 ml of 2 M alkaline hydroxylamine was added and thoroughly mixed, and allowed to stand at room temperature for 15 minutes.

[6] = target: Human Plasma Kallikrein (Homo sapiens, UniProt P03952); test: Inhibitory effect on ester-hydrolyzing activity of human plasma kallikrein (TAMe substrate); type: biochemical; settings: for IC50: Table 4 bracketed value, read-out: Kallikrein ID50; for inhibition at 1000 µM: read-out: Kallikrein percent inhibition
Human Plasma Kallikrein, sequence (P03952 391-638 limits assumed): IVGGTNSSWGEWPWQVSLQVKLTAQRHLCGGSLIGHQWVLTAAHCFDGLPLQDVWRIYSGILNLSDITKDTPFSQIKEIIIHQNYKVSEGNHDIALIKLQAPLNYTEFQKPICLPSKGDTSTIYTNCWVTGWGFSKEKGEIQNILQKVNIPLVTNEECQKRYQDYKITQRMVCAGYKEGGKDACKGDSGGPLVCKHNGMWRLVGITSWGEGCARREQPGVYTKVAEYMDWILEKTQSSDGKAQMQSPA
Human Plasma Kallikrein, sequence (P03952 20-390 partner limits assumed): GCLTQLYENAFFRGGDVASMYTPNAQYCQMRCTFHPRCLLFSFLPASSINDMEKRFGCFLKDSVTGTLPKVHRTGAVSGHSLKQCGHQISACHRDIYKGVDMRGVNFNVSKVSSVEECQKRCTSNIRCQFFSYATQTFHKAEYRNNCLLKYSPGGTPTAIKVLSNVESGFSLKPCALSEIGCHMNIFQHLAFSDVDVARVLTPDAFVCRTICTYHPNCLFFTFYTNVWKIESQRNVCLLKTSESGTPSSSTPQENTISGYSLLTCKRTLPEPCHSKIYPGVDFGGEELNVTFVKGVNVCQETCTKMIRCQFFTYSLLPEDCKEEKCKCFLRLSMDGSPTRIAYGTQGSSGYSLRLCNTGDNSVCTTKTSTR
Experimental: as §1

[7] = in vitro, TAMe, pH 8.6, 37° C., Table 4 bracketed value, read-out: Trypsin ID50

| Compound | IC50 [2] [µM] | inhibition at 1000 µM ([3]; at 10^-3 M, in vitro, TAMe) [%] | inhibition at 1000 µM [4] [%] | IC50 [5, 7] [µM] | IC50 ([6]; in vitro, TAMe) [µM] | inhibition at 1000 µM [2] [%] | inhibition at 1000 µM ([6]; at 10^-3 M, in vitro, TAMe) [%] | IC50 ([3]; in vitro, TAMe) [µM] | IC50 ([4]; in vitro, ATEe) [µM] | other results |
| --- | --- | --- | --- | --- | --- | --- | --- | --- | --- | --- |
| COC(=O)c1ccc(OC(=O)C2CCCc3ccc(N)cc32)cc1 (stereo not shown) [Compound 91] | 210 | 40.7 | 27.4 | 17 | – | – | – | – | – | % protective ([1]; 1 mg/kg i.p.): 0%; Survived / Tested ([1]; 1 mg/kg i.p.): 0/10; % protective ([1]; 10 mg/kg i.p.): 0%; Survived / Tested ([1]; 10 mg/kg i.p.): 0/10; % protective ([1]; 100 mg/kg i.p.): 20%; Survived / Tested ([1]; 100 mg/kg i.p.): 2/10 |
| COc1ccc(OC(=O)C2CCCc3ccc(NC(=N)N)cc32)cc1.Cl (stereo not shown) [Compound 138, p-methoxyphenyl 7-guanidino-1,2,3,4-tetrahydro-1-naphthoate hydrochloride] | 32 | 17 | 39 | 1000 | 280 | – | – | – | – | % protective ([1]; 1 mg/kg i.p.): 0%; Survived / Tested ([1]; 1 mg/kg i.p.): 0/10; % protective ([1]; 10 mg/kg i.p.): 20%; Survived / Tested ([1]; 10 mg/kg i.p.): 2/10; % protective ([1]; 100 mg/kg i.p.): 30%; Survived / Tested ([1]; 100 mg/kg i.p.): 3/10 |
| Nc1ccc2c(c1)C(C(=O)Oc1ccc(OC(=O)C3CCCc4ccc(N)cc43)cc1)CCC2 (stereo not shown) [Compound 106] | – | < 3.2 | – | 92 | – | 35 | < 3.2 | – | – | inhibition at 1000 µM ([4]; at 10^-3 M, in vitro, ATEe): 31% |
| N=C(N)Nc1ccc2c(c1)C(C(=O)Oc1ccc(OC(=O)C3CCCc4ccc(NC(=N)N)cc43)cc1)CCC2 (stereo not shown) [Compound 160] | 54 | – | – | – | 230 | – | – | 100 | 430 | inhibition at 1000 µM [5]: 40.5% |
| NC(=O)COC(=O)c1ccc(OC(=O)C2CCCc3ccc(N)cc32)cc1 (stereo not shown) [Compound 99] | 66 | – | – | 88 | – | – | – | 300 | 540 | inhibition at 1000 µM [6]: 17.2% |
| NC(=O)COC(=O)c1ccc(OC(=O)C2CCCc3c(N)cccc32)cc1 (stereo not shown) [Compound 71] | 62 | – | 30.6 | 31 | – | – | 23.4 | 54 | – | – |
| N=C(N)Nc1ccc2c(c1)C(C(=O)Oc1cccc3ccccc13)CCC2 (stereo not shown) [Compound 159] | – | 27.6 | – | 320 | 110 | 46 | – | – | 180 | – |
| COc1cccc(OC(=O)C2CCCc3ccc(NC(=N)N)cc32)c1 (stereo not shown) [Compound 139] | 260 | – | – | – | – | – | – | 1000 | 450 | inhibition at 1000 µM [6]: 36.7%; inhibition at 1000 µM [5]: 46% |
| CCOC(=O)c1ccc(OC(=O)C2CCCc3c(N)cccc32)cc1.Cl (stereo not shown) [Compound 66, p-ethoxycarbonylphenyl 5-amino-1,2,3,4-tetrahydro-1-naphthoate hydrochloride] | – | 4.4 | < 3.2 | – | – | 16.5 | 19.9 | – | – | inhibitory activity on thrombin ([2]; text of Examples): no inhibitory activity; inhibitory activity on plasmin ([3]; text of Examples): no inhibitory activity; inhibitory activity on Cl-esterase ([4]; text of Examples): no inhibitory activity; inhibitory activity on kallikrein ([6]; text of Examples): no inhibitory activity; IC50 ([5]; in vitro, text of Examples, read-out: ID50, tosylarginine methyl ester hydrolyzing activity of trypsin): 88 µM |
| CN(C)C(=O)COC(=O)CCc1ccc(OC(=O)C2CCCc3ccc(N)cc32)cc1 (stereo not shown) [Compound 103] | 1000 | 21.5 | 27.2 | 78 | – | – | 13.3 | – | – | – |
| N=C(N)Nc1cccc2c1CCCC2C(=O)Oc1cccc2c1CCCC2 (stereo not shown) [Compound 164] | – | 46.1 | – | 1000 | 1000 | < 3.2 | – | – | 400 | – |
| CCCCOc1ccc(OC(=O)C2CCCc3c(NC(=N)N)cccc32)cc1 (stereo not shown) [Compound 116] | 1000 | – | – | – | – | – | – | 1000 | 350 | inhibition at 1000 µM [6]: 29.3%; inhibition at 1000 µM [5]: < 3.2% |
| CCOC(=O)c1ccc(OC(=O)C2CCCc3ccc(N)cc32)cc1 (stereo not shown) [Compound 94] | – | 16.6 | – | 46 | – | 42.9 | 25 | – | – | inhibition at 1000 µM ([4]; at 10^-3 M, in vitro, ATEe): 3.2% |
| N=C(N)Nc1cccc2c1CCCC2C(=O)Oc1ccc(C(=O)OCc2ccccc2)cc1 (stereo not shown) [Compound 124] | – | – | – | 75 | 190 | 45 | – | 60 | 1000 | – |
| CN(C)C(=O)COC(=O)c1ccc(OC(=O)C2CCCc3ccc(N)cc32)cc1 (stereo not shown) [Compound 100] | 40 | – | 42 | 190 | – | – | 36 | 53 | – | – |
| Cc1ccc(OC(=O)C2CCCc3ccc(NC(=N)N)cc32)cc1 (stereo not shown) [Compound 136] | 900 | – | – | – | – | – | – | – | 540 | inhibition at 1000 µM [3]: < 3.2%; inhibition at 1000 µM [6]: < 3.2%; inhibition at 1000 µM [5]: 17.5% |
| N#Cc1ccc(OC(=O)C2CCCc3c(NC(=N)N)cccc32)cc1 (stereo not shown) [Compound 162] | 1000 | 49 | 26.4 | – | 1000 | – | – | – | – | inhibition at 1000 µM ([5]; at 10^-3 M, in vitro, TAMe): 44.2% |
| COC(=O)c1cccc(OC(=O)C2CCCc3ccc(N)cc32)c1 (stereo not shown) [Compound 92] | 1000 | < 3.2 | 27.3 | 98 | – | – | < 3.2 | – | – | – |
| N=C(N)Nc1cccc2c1CCCC2C(=O)Oc1cccc2ccccc12 (stereo not shown) [Compound 131] | – | 13.8 | – | 830 | 1000 | < 3.2 | – | – | 410 | – |
| CN(C)C(=O)COC(=O)Cc1ccc(OC(=O)C2CCCc3ccc(N)cc32)cc1 (stereo not shown) [Compound 101] | 300 | – | 31.5 | 110 | – | – | 34.4 | 48 | – | – |
